Experimental data: article PMC13221243, “Crosstalk Between Lysine Lactylation and Acetylation Regulates Lactate Dehydrogenase in Streptococcus mutans” (Genomics, Proteomics & Bioinformatics, 2025)

What was measured:
ActA [1] = target: T1, ActA (Streptococcus mutans, UniProt Q8DVT1); test: in vitro acylation of LDH, anti-Kla Western blot; format: biochemical; settings: acyl acceptor recombinant LDH; pH 7.5, 10 mM MgCl2, 37°C, 3 h
T1 construct: gene SMU_386; recombinant His-tagged from pET28a, E. coli BL21(DE3), nickel purified
T1 sequence (Q8DVT1 1-144): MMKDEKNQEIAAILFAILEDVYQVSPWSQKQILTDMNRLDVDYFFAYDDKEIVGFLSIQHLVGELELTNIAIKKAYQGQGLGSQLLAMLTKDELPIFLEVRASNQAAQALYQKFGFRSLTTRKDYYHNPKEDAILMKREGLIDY

ActA [2] = target: T1, ActA; test: in vitro acylation of LDH, anti-Kac Western blot; format: biochemical; settings: acyl acceptor recombinant LDH; pH 7.5, 10 mM MgCl2, 37°C, 3 h

SMILES | in vitro acylation of LDH, anti-Kla Western blot (ActA [1]) | in vitro acylation of LDH, anti-Kac Western blot (ActA [2])
CC(O)C(=O)SCCNC(=O)CCNC(=O)[C@H](O)C(C)(C)COP(=O)(O)OP(=O)(O)OC[C@H]1O[C@@H](n2cnc3c(N)ncnc32)[C@H](O)[C@@H]1OP(=O)(O)O (some centres unmarked) [La-CoA] | However, ActA significantly increased the levels of Kla and Kac in LDH enzymatically. | –
CC(=O)SCCNC(=O)CCNC(=O)[C@H](O)C(C)(C)COP(=O)(O)OP(=O)(O)OC[C@H]1O[C@@H](n2cnc3c(N)ncnc32)[C@H](O)[C@@H]1OP(=O)(O)O [Ac-CoA] | – | However, ActA significantly increased the levels of Kla and Kac in LDH enzymatically.
